What is called IC50 is the point on the concentration scale where inhibition reaches its midpoint.

The target of assay [1] is T1, A disintegrin and metalloproteinase with thrombospondin motifs 5 (Homo sapiens, UniProt Q9UNA0).
T1 sequence (Q9UNA0 whole entry): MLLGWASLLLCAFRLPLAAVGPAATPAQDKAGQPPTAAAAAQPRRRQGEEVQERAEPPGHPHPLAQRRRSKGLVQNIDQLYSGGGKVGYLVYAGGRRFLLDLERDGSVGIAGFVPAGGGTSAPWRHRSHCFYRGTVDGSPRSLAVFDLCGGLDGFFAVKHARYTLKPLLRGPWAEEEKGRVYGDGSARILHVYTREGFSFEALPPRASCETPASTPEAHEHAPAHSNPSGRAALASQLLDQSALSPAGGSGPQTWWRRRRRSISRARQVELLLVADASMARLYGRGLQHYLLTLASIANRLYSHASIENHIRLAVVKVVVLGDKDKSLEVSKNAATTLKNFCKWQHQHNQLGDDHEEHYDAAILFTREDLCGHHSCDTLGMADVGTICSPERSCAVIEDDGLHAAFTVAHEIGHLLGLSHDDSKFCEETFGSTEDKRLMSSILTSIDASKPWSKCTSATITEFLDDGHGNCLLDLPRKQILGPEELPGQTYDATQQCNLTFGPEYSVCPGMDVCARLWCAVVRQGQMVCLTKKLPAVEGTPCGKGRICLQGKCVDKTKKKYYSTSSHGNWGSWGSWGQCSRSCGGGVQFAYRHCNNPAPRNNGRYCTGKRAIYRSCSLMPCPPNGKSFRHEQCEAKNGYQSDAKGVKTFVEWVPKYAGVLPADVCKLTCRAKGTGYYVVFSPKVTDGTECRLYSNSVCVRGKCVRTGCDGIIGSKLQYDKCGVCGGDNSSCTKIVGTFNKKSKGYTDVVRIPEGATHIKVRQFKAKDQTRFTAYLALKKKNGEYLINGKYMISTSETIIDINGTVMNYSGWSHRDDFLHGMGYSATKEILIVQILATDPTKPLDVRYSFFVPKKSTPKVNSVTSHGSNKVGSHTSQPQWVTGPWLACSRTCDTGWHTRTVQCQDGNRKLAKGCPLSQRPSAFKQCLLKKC
In words: hADAMTS-5 assay: The basis for the assay is the cleavage of the substrate TBIS-1 (5 FAM-TEGEARGSVILLK (5TAMRA)K-NH2) (SEQ ID NO: 2) by human ADAMTS-5.For the dose response (10 point), 4 μL of a dilution series of compound (2 mM highest concentration, 1/5 dilution in DMSO further diluted 1 in 10 in water, corresponding to a final highest concentration of 20 μM), is transferred to 384 well Fluotrac ….

For assay [2], the target named is Disintegrin and metalloproteinase domain-containing protein 17 (Homo sapiens, UniProt P78536). In words: hTACE assay: The basis for the assay is the cleavage of the substrate 5FAM-LAQAVRSSSRK-5TAMRA (SEQ ID No 3) (Anaspec, custom 34891) by human TACE (R&D SYSTEMS INC., Cat#930-ADB).For the dose response (10 point), 4 μL of a dilution series of compound (2 mM highest concentration, 1/5 dilution in DMSO further diluted 1 in 10 in water, corresponding to a final highest concentration of 20 μM), is ….
Sequence of Disintegrin and metalloproteinase domain-containing protein 17 (P78536 whole entry, the tested form may be a part): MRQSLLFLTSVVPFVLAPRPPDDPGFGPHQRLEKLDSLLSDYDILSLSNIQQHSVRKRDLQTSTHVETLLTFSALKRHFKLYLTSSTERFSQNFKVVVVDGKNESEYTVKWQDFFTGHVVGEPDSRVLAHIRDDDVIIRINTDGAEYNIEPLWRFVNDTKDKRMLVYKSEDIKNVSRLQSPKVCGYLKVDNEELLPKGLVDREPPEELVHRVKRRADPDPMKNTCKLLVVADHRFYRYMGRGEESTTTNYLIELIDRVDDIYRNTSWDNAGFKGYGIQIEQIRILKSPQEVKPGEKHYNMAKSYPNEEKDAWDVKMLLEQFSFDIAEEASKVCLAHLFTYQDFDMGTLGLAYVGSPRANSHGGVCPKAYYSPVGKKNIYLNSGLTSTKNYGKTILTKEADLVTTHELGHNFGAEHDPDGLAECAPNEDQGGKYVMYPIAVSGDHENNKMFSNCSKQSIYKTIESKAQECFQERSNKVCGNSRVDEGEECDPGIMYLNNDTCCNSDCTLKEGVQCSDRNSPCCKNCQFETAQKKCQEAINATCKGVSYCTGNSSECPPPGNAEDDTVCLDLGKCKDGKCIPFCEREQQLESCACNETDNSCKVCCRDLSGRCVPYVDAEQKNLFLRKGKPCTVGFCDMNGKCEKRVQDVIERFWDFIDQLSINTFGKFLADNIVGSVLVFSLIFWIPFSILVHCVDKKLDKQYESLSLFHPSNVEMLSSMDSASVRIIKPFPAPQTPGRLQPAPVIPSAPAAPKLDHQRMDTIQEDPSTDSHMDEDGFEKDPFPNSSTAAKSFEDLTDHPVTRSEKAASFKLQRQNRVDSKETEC

The target of the next assay is Collagenase 3 (Homo sapiens, UniProt P45452). The assay is described as follows: Human MMP13 is preactivated by incubated the enzyme in the same buffer complemented with 1 mM freshly prepared p-Aminophenylmercuric acetate (AMPA) for 1 h at 37° C.The reaction is initiated by adding to the assay plate 390 MMP FRET Substrate I (10 μL, 2.5 μM) in the same buffer.Finally, the fluorescence is read on the Envision (Perkin Elmer) after an incubation of 45 min at room temperature (Excitation 485 nm, Emission 530).

Assay [3] addresses Matrix metalloproteinase-14 (Homo sapiens, UniProt P50281). In words: hMMP14 assay: The basis for the assay is the cleavage of the substrate 390 MMP FRET Substrate I (Anaspec Cat# AS-27076) by human MMP14 (Biomol, Cat#SE-259).For the dose response (10 point), 4 μL of a dilution series of compound 2 mM highest concentration, 1/5 dilution in DMSO further diluted 1 in 10 in water, corresponding to a final highest concentration of 20 μM), is transferred to 384 well ….

As to `COc1cc(C2CCN(C(=O)CCC3(C)NC(=O)NC3=O)CC2)c(C)cc1Cl` (stereo not drawn), the IC50 (in assay [1]; in assay [2]; on Collagenase 3) was greater than 100 nM each time.

`COc1cc(C2CCN(C(=O)CC[C@@]3(C)NC(=O)NC3=O)CC2)cc(Cl)c1Cl` displayed an IC50 against Collagenase 3 greater than 100 nM.

For the compound `COc1c(Cl)cc(Cl)cc1C1CCN(C(=O)CC[C@@]2(C)NC(=O)NC2=O)CC1`, the half-inhibitory concentration (IC50) (in assay [1]; at Collagenase 3) was greater than 100 nM each time.

Consider `COc1cc(C2CCN(C(=O)CC[C@H]3NC(=O)NC3=O)CC2)cc(OC)c1F`, for which the IC50 (in assay [1]; at Collagenase 3; in assay [3]) was greater than 100 nM throughout.

Take `COc1c(Cl)cc(Cl)cc1C1CCN(C(=O)CC[C@H]2NC(=O)NC2=O)CC1`: the IC50 (in assay [1]; in assay [2]; at Collagenase 3) was greater than 100 nM each time.

`COc1cc(C2CCN(C(=O)CC[C@H]3NC(=O)NC3=O)CC2)cc(Cl)c1Cl` had an IC50 on Collagenase 3 greater than 100 nM.

The values are drawn from ChEMBL document CHEMBL5727515, “5-[3-[piperzin-1-yl]-3-oxo-propyl]-imidazolidine-2,4-dione derivatives as ADAMTS 4 and 5 inhibitors for treating E.G. osteoarthritis” (2020).
